Where two headings read alike, the source gives them in different places.
Experiments:
gamma-carboxylase = molecular target: T1, gamma-carboxylase (Homo sapiens, UniProt P38435); conditions: thiol-specific inhibitors; cited from earlier work
T1 sequence (P38435 1-758): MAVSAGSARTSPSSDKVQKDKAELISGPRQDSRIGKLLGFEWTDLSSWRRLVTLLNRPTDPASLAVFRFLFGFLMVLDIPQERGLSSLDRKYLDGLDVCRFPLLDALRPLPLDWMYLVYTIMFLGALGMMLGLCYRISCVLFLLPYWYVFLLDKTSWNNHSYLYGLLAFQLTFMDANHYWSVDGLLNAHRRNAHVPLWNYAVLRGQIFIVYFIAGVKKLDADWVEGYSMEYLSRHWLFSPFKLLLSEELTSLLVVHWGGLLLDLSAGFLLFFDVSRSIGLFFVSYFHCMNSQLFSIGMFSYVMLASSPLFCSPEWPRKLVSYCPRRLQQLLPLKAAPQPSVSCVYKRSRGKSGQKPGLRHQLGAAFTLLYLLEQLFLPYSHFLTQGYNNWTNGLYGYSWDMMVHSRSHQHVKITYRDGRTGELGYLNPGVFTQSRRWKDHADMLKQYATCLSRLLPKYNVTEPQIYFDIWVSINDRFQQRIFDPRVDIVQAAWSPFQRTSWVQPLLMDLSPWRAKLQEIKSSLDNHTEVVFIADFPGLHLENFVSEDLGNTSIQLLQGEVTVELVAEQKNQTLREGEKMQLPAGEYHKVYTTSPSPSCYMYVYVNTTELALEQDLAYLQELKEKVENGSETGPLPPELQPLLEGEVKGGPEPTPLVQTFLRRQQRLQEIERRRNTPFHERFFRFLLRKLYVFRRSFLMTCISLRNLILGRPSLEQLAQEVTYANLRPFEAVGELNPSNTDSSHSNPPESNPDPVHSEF

osteoblasts = test: Gene expression in osteoblasts treated with IL-6; type: cell-based
Text: It was observed that treating osteoblasts with IL-6 decreased expression of Osteocalcin, thereby explaining why the circulating levels of total (carboxylated and uncarboxylated forms) osteocalcin are […] in Il6−/− mice. More importantly, IL-6 increased the expression in osteoblasts of Rankl, a cytokine that favors osteoclast differentiation and decreased the expression of Osteoprotegerin (Opg), a decoy receptor for Rankl and an inhibitor of bone resorption (Karsenty and Wagner, 2002, Developmental Cell 2:389-406; Palmqvist et al., 2002, J. Immunol. 169:3353-3362). This observation is consistent with the fact that the circulating levels of the undercarboxylated and active form of osteocalcin are decreased in Il6−/− mice (FIG. 29E). The regulation of Il-6 expression by osteocalcin signaling in myofibers and of bone resorption by IL-6 also explains why circulating levels of CTX, a biomarker of bone resorption, were low after exercise in Il6−/− and Gprc6aMck−/− mice (FIG. 29G-H). These experiments reveal the existence of a feed-forward regulation between osteocalcin production in bone and IL-6 synthesis in muscle that is necessary for the increase in muscle function during exercise. This regulatory loop should synergize with the ability of IL-6 to favor liver gluconeogenesis and lipolysis, since these two other functions of IL-6 increase the pool of nutrients made available for myofibers during exercise.
Serum osteocalcin, PINP, CTX, and insulin levels were measured using ELISA assays. Blood glucose level was measured using an Accu-Check glucometer. Urine 3-MHT was measured as previously described (Aranibar et al., 2011, Anal. Biochem. 410:84-91). Determination of cAMP accumulation was performed using a commercial kit (R&D). For gene expression, 1 μg of total RNA was reverse transcribed into cDNA. qPCR analyses were performed using a SYBER green master mix (Applied Biosciences) and a CFX-Connect real time PCR (Bio-Rad). Relative expression levels of each gene were normalized to that of Hprt or Gapdh. For in situ hybridization, muscle was frozen in liquid N2-cooled methylbutane. Samples were sectioned at 10 μm using a cryostat. In situ hybridization was performed with a DIG-labeled riboprobe as previously described (Oury et al., 2011, Cell 144:796-809).

Row | Compound | gamma-carboxylase enzyme activity (gamma-carboxylase) | expression of Osteocalcin in osteoblasts (osteoblasts) | expression of Osteoprotegerin (Opg) in osteoblasts (osteoblasts) | expression of Rankl in osteoblasts (osteoblasts) | expression of Osteocalcin in osteoblasts (osteoblasts; listed as interleukin-6) | expression of Rankl in osteoblasts (osteoblasts; listed as interleukin-6)
1 | CCN1C(=O)C=CC1=O [N-ethylmaleimide] | inhibited |  |  |  |  | 
2 | O=C([O-])c1cc[c]([Hg][OH])cc1 [pHMB, p-hydroxymurcuribenzoate] | inhibited |  |  |  |  | 
3 | IL-6: interleukin-6 (IL-6), a myokine whose circulating levels raise during exercise |  | decreased | decreased | increased | inhibits | stimulating

From US11191811B2, “Osteocalcin as a treatment for frailty associated with aging” (THE TRUSTEES OF COLUMBIA UNIVERSITY IN THE CITY OF NEW YORK, priority 2014, dated 2021)
